We go through 13 compounds from patent US12528812B2 (Genentech, Inc., priority 2020, dated 2026).

Like-named read-outs stand apart in the source and are kept apart here.

In test [1] the test system is EPO-stimulated P-STAT5 in TF-1 human erythroleukemia cells. The test can be described thus: P-STAT5 TF-1 + EPO assay (JAK2 pathway). Format: cell-based. The note with it: Homo sapiens, TF-1, TF-1 cells, EPO stimulation; read-out: Cellular JAK2 PSTAT5 TF-1 + EPO. Here is the method:
(§1) TF-1 human erythroleukemia cells (ATCC′; Manassas, VA; Catalog No. CRL-2003™) were grown in Roswell Park Memorial Institute (RPMI) medium supplemented with 10% heat-inactivated fetal bovine serum (FBS), 2 ng/mL granulocyte-macrophage colony-stimulating factor, 1× non-essential amino acids (NEAA), and 1 mM sodium pyruvate. The day before the assay, the cultures were transferred to Opti-MEM™, 1×NEAA, 1 mM sodium pyruvate, and 0.5% charcoal-stripped FBS (starve medium). Inhibitor stock solutions (5 mM in DMSO) were serially diluted 1:2 in DMSO to generate a 10-point concentration titration (at 500× test concentration), which was further diluted by a 50-fold dilution in Assay Medium (RPMI containing 1×NEAA and 1 mM sodium pyruvate) to generate a 10× concentration titration (in 2% DMSO). The cells (300,000 cells/well in 35 μL of Assay Medium) were seeded in 384-well Greiner plates. Diluted inhibitor at 10× concentration (5 μL) was added to the cells and the plates were incubated for 30 minutes at 37° C. in a humidified incubator. Cells were stimulated with the human recombinant cytokine at the respective EC90 concentrations, as previously determined for each individual lot. For the phosphorylated signal transducer and activator of transcription 6 (P-STAT6) TF-1+Interleukin-13 (IL-13) assay, 10 μL of 250 ng/mL IL-13 (R&D Systems; Minneapolis, MN) was added to the cells, which were then incubated for 10 minutes at 37° C. For the P-STAT5 TF-1+Erythropoietin (EPO) assay, 10 μL of 110 IU/mL EPO (Gibco Life Technologies, Catalog No. PHC2054) was added to the cells, which were then incubated for […] at 37° C. For both assays, the incubation was followed by addition to the cells of 5 μL of ice-cold 10× cell lysis buffer (Cell Signaling Technologies; Danvers, MA; Catalog No. 9803S) containing 1 mM phenylmethylsulfonyl fluoride (PMSF). Assay plates were frozen at −80° C. for a minimum of 1 hour. In the IL-13 assay, P-STAT6 was measured by coating goat anti-rabbit (GAR) plates (Meso Scale Discovery [MSD]; Rockville, MD; Catalog No. MSD L21RA-1) with rabbit anti-human total STAT6 antibody (Cell Signaling Technologies; Catalog No. 9362S), incubating the cell lysates in the coated plates overnight at 4° C., and then detecting with mouse anti-P-STAT6 (Tyr641) Clone 16E12 antibody (MilliporeSigma; Burlington, MA; Catalog No. 05-590, custom labeled by MSD with SULFO-tag) using standard MSD plate processing, washing, and detection protocols. In the EPO assay, P-STAT5 was detected using the phospho-STAT5a,b Whole Cell Lysate Kit (MSD; Catalog No. K150IGD-1). The electrochemiluminescence (ECL) signal of wells was read on the MESO SECTOR 5600 (MSD) reader.
(§2) Data analysis was performed by subtracting the negative control (cytokine stimulated and 20 μM control inhibitor-treated cells) mean ECL value from the ECL value of all wells, determining percent of control for test compound well ECL values relative to the positive control (cytokine stimulated and DMSO-treated cells) mean ECL value, and determining the IC50 for test compounds with a four-parameter logistic fit model as shown in Equation 4.

Test [2] concerns the target Recombinant human JAK2 kinase domain protein (Residues 812-1132) (Homo sapiens, UniProt O60674). The test can be described thus: JAK2 biochemical assay (LabChip mobility shift, Ki). The note with it: Biochem JAK2 Ki.
The subject of test [3] is IL-13-stimulated P-STAT6 in TF-1 human erythroleukemia cells. The test can be described thus: P-STAT6 TF-1 + IL-13 assay (JAK1 pathway). The test is classed as cell-based. Conditions: Homo sapiens, TF-1, TF-1 cells, IL13 stimulation; read-out: Cellular JAK1 PSTAT6 TF-1 + IL13. How it is done: as §1, §2
Test [4] has as its system IL-13-stimulated STAT6 phosphorylation in human lung bronchial epithelial BEAS-2B cell line. The test can be described thus: P-STAT6 BEAS-2B + IL-13 cell assay. The test is classed as cell-based. The note with it: BEAS2B cells, IL13 stimulation, read-out: Cellular JAK1 PSTAT6 BEAS2B + IL13. The gist of the method:
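BEAS-2B cells grown 48 h at 37 °C, pre-treated 1 h with compound (10-point 1:2 dilution curve), then stimulated 15 min with human recombinant IL-13 (250 ng/mL stock). Lysate P-STAT6 (Tyr641) read by MSD sandwich ELISA with total-STAT6 capture; IC50 from four-parameter logistic fit of control-normalised data.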

The target in test [5] is T1, recombinant human JAK1 kinase domain protein (Residues 854-1154) (Homo sapiens, UniProt P23458).
T1 construct: human JAK1 kinase domain protein (Residues 854-1154); purchased Proteros Biostructures GmbH (Martinsried, Germany); host or cells: insect cells
T1 sequence (P23458 854-1154): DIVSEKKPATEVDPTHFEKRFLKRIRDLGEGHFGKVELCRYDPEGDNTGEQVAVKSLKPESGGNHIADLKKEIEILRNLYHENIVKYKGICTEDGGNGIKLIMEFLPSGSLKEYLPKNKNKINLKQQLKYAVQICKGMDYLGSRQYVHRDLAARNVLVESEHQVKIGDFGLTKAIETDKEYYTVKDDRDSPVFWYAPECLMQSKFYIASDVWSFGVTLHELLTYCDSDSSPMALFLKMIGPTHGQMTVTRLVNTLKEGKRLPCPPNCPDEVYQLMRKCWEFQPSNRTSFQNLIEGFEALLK
Briefly: JAK1 biochemical assay (LabChip mobility shift, Ki). Conditions: read-out: Biochem JAK1 Ki.

Chain of Recombinant human JAK2 kinase domain protein (Residues 812-1132) (O60674 812-1132): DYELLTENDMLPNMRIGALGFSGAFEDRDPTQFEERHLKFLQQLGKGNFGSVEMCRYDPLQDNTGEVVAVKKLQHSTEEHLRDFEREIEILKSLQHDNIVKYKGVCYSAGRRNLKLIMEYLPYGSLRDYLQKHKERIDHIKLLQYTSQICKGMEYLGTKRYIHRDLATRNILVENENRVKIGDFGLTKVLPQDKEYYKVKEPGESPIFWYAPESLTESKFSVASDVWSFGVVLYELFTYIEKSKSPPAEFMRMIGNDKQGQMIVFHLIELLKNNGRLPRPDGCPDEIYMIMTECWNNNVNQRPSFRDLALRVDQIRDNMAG

Turning to `CC(O)Cn1cc(Oc2ccc(OC(F)F)c(-c3nn(C)cc3NC(=O)c3cnn4cccnc34)c2)cn1` (racemic) [Example 121, N-[3-[2-(difluoromethoxy)-5-[1-[rac-(2S)-2-hydroxypropyl]pyrazol-4-yl]oxy-phenyl]-1-methyl-pyrazol-4-yl]pyrazolo[1,5-a]pyrimidine-3-carboxamide], the IC50 was 4.9 nM in test [1]; 4 nM in test [3]; 18 nM in test [4] (Homo sapiens, BEAS-2B). The values for the inhibitory constant (Ki) in test [2] and in test [5] were 0.18 nM and 0.28 nM, respectively.

As to `CN1CCC(n2cc(Oc3ccc(OC(F)F)c(-c4nn(C)cc4NC(=O)c4cnn5cccnc45)c3)cn2)C1` (racemic) [Example 141, N-[3-[2-(difluoromethoxy)-5-[1-[rac-(3R)-1-methylpyrrolidin-3-yl]pyrazol-4-yl]oxy-phenyl]-1-methyl-pyrazol-4-yl]pyrazolo[1,5-a]pyrimidine-3-carboxamide], the IC50 came to 33 nM in test [1], 12 nM in test [3] and 46 nM in test [4]. The Ki in test [2] turned out to be 1.2 nM; in test [5] it was 1.6 nM.

Take `Cn1cc(NC(=O)c2cnn3cccnc23)c(-c2cc(Oc3cnn([C@@H]4CNCC[C@H]4O)c3)ccc2OC(F)F)n1` (stereo in doubt) [Example 181, N-[3-[2-(difluoromethoxy)-5-[1-[rac-(3R,4R)-4-hydroxy-3-piperidyl]pyrazol-4-yl]oxy-phenyl]-1-methyl-pyrazol-4-yl]pyrazolo[1,5-a]pyrimidine-3-carboxamide]: the IC50 in test [1] stood at 160 nM; in test [3], 76 nM; in test [4] (Homo sapiens, BEAS-2B), 60 nM. Besides, the Ki was determined as 0.23 nM in test [2] and 0.29 nM in test [5].

In the case of `CN1CC[C@H](O)[C@@H](n2cc(Oc3ccc(OC(F)F)c(-c4nn(C)cc4NC(=O)c4cnn5cccnc45)c3)cn2)C1` (stereo in doubt) [Example 184, N-[3-[2-(difluoromethoxy)-5-[1-[rac-(3S,4S)-4-hydroxy-l-methyl-3-piperidyl]pyrazol-4-yl]oxy-phenyl]-1-methyl-pyrazol-4-yl]pyrazolo[1,5-a]pyrimidine-3-carboxamide], the IC50 in test [1] turned out to be 38 nM; in test [3], 12 nM; in test [4] (Homo sapiens, BEAS-2B), 47 nM. In addition, the values for the inhibition constant (Ki) in test [2] and in test [5] were 0.21 nM and 0.32 nM, respectively.

As for `Cn1cc(NC(=O)c2cnn3cccnc23)c(-c2cc(Oc3cccnc3)ccc2OC(F)F)n1` [Example 2, N-[3-[2-(difluoromethoxy)-5-(3-pyridyloxy)phenyl]-1-methyl-pyrazol-4-yl]pyrazolo[1,5-a]pyrimidine-3-carboxamide], the IC50 came to 11 nM in test [1]; 3.6 nM in test [3]; 20 nM in test [4] (Homo sapiens, BEAS-2B). Further, the values for the Ki in test [2] and in test [5] were 0.19 nM and 0.32 nM, respectively.

With `Cc1ccc(Oc2ccc(OC(F)F)c(-c3nn(C)cc3NC(=O)c3cnn4cccnc34)c2)cc1C(=O)N(C)C` [Example 49, N-[3-[2-(difluoromethoxy)-5-[3-(dimethylcarbamoyl)-4-methyl-phenoxy]phenyl]-1-methyl-pyrazol-4-yl]pyrazolo[1,5-a]pyrimidine-3-carboxamide], the IC50 was determined as 8.6 nM in test [1]; 5.4 nM in test [3]; 20 nM in test [4] (Homo sapiens, BEAS-2B). In addition, the inhibition constant Ki in test [2] was found to be 0.28 nM; in test [5] it was 0.44 nM.

As to `Cn1cc(Oc2ccc(OC(F)F)c(-c3nn(C)cc3NC(=O)c3cnn4cccnc34)c2)cn1` [Example 59, N-[3-[2-(difluoromethoxy)-5-(1-methylpyrazol-4-yl)oxy-phenyl]-1-methyl-pyrazol-4-yl]pyrazolo[1,5-a]pyrimidine-3-carboxamide], the IC50 in test [1] turned out to be 7.3 nM; in test [3], 4.6 nM; in test [4] (Homo sapiens, BEAS-2B), 13 nM. In addition, the Ki in test [2] came to 0.18 nM; in test [5], 0.31 nM.

With `CN1CC(O)(c2cccc(Oc3ccc(OC(F)F)c(-c4nn(C)cc4NC(=O)c4cnn5cccnc45)c3)c2)C1` [Example 79, N-[3-[2-(difluoromethoxy)-5-[3-(3-hydroxy-l-methyl-azetidin-3-yl)phenoxy]phenyl]-1-methyl-pyrazol-4-yl]pyrazolo[1,5-a]pyrimidine-3-carboxamide], the IC50 in test [1] came to 4.8 nM; in test [3] it was 8.2 nM; in test [4] (Homo sapiens, BEAS-2B), 8 nM. Further, the Ki in test [2] came out at 0.25 nM; in test [5], 0.24 nM.

As for `Cn1cc(NC(=O)c2cnn3cccnc23)c(-c2cc(Oc3cccc(C4CNCCO4)c3)ccc2OC(F)F)n1` (centres unmarked) [Example 82, N-[3-[2-(difluoromethoxy)-5-(3-morpholin-2-ylphenoxy)phenyl]-1-methyl-pyrazol-4-yl]pyrazolo[1,5-a]pyrimidine-3-carboxamide], the IC50 in test [1] is 15 nM; in test [3], 8.4 nM; in test [4] (Homo sapiens, BEAS-2B), 51 nM. Moreover, the Ki came to 0.6 nM in test [2] and 0.58 nM in test [5].

On to `CN1CC(O)(c2cc(F)cc(Oc3ccc(OC(F)F)c(-c4nn(C)cc4NC(=O)c4cnn5cccnc45)c3)c2)C1` [Example 96, N-[3-[2-(difluoromethoxy)-5-[3-fluoro-5-(3-hydroxy-1-methyl-azetidin-3-yl)phenoxy]phenyl]-1-methyl-pyrazol-4-yl]pyrazolo[1,5-a]pyrimidine-3-carboxamide], for which the IC50 amounted to 3 nM in test [1]; 5.2 nM in test [3]; 13 nM in test [4] (Homo sapiens, BEAS-2B). The inhibitory constant (Ki) in test [2] was found to be 0.26 nM; in test [5], 0.25 nM.

`Cn1cc(NC(=O)c2cnn3cccnc23)c(-c2cc(Oc3cnn(CCO)c3)ccc2OC(F)F)n1` [Example 113, N-[3-[2-(difluoromethoxy)-5-[1-(2-hydroxyethyl)pyrazol-4-yl]oxy-phenyl]-1-methyl-pyrazol-4-yl]pyrazolo[1,5-a]pyrimidine-3-carboxamide]: the IC50 in test [1] came out at 13 nM; in test [3], 7 nM; in test [4] (Homo sapiens, BEAS-2B), 20 nM. Also, the Ki turned out to be 0.14 nM in test [2] and 0.3 nM in test [5].

On to `Cn1cc(NC(=O)c2cnn3cccnc23)c(-c2cc(Oc3cnn(C4COC4)c3)ccc2OC(F)F)n1` [Example 114, N-[3-[2-(difluoromethoxy)-5-[1-(oxetan-3-yl)pyrazol-4-yl]oxy-phenyl]-1-methyl-pyrazol-4-yl]pyrazolo[1,5-a]pyrimidine-3-carboxamide], for which the IC50 in test [1] came out at 29 nM; in test [3], 6 nM; in test [4] (Homo sapiens, BEAS-2B) it was 29 nM. For the same compound, the Ki was 0.49 nM in test [2] and 0.84 nM in test [5].

Regarding `CN1CC(O)(Cn2cc(Oc3ccc(OC(F)F)c(-c4nn(C)cc4NC(=O)c4cnn5cccnc45)c3)cn2)C1` [Example 128, N-[3-[2-(difluoromethoxy)-5-[1-[(3-hydroxy-l-methyl-azetidin-3-yl)methyl]pyrazol-4-yl]oxy-phenyl]-1-methyl-pyrazol-4-yl]pyrazolo[1,5-a]pyrimidine-3-carboxamide], the IC50 in test [1] was determined as 52 nM; in test [3], 51 nM; in test [4] (Homo sapiens, BEAS-2B), 30 nM. Besides, the inhibition constant Ki was determined as 0.41 nM in test [2] and 0.52 nM in test [5].
